Measured values as given in US7205298B2, “Substituted triazine kinase inhibitors” (Janssen Pharmaceutica N.V., priority 2002, dated 2007).

Key:
Protein Kinase A = target: T1, Protein Kinase A (Bos taurus, UniProt P00517); experiment: Kinase selectivity assay Protein Kinase A; format: biochemical, bovine
T1 construct: purified from bovine heart; purchased Upstate Biotech 14-114; host or cells: bovine heart (tissue)
Experimental: (§1) Assays to test compound inhibition of other kinases were preformed using methods that measure the amount of phosphorylation of a biotinylated peptide substrate. Biotinylated peptide substrates were selected from the literature as appropriate for the enzyme being evaluated. The general procedure used to assay for kinase activity is as follows: a kinase reaction mix was prepared in 50 mM Tris-HCl pH=8, 10 mM MgCl2, 0.1 mM Na3VO4, 1 mM DTT, 10 μM ATP, 0.25–1 μM biotinylated peptide substrate, 0.2–0.8 μCuries per well ^33P-γ-ATP (2000–3000 Ci/mmol). Assay conditions vary slightly for each protein kinase, for example, insulin receptor kinase requires 10 mM MnCl2 for activity and Calmodulin-dependent protein kinase requires calmodulin and 2 mM CaCl2. The reaction mixture was dispensed into the wells of a streptavidin coated Flashplate and 1 μL test compound in 100% DMSO was added to a 100 μL reaction volume resulting in a final concentration of 1% DMSO in the reaction. Enzyme was diluted in 50 mM Tris-HCl pH=8.0, 0.1% BSA and added to each well. The reaction was incubated for one hour at 30° C. in the presence of a test compound. […] The plate was read on a scintillation counter to determine ^33P-γ-ATP incorporated into the immobilized peptide substrate. […] A maximum and minimum signal for the assay was determined on each plate. […]

MAP Kinase ERK-2 = target: T2, MAP Kinase ERK-2 (Rattus norvegicus, UniProt P63086); experiment: Kinase selectivity assay MAP Kinase ERK-2; format: biochemical
T2 construct: polyhistidine (N); purchased BIOMOL SE-137; host or cells: E. coli
T2 sequence (P63086 whole entry): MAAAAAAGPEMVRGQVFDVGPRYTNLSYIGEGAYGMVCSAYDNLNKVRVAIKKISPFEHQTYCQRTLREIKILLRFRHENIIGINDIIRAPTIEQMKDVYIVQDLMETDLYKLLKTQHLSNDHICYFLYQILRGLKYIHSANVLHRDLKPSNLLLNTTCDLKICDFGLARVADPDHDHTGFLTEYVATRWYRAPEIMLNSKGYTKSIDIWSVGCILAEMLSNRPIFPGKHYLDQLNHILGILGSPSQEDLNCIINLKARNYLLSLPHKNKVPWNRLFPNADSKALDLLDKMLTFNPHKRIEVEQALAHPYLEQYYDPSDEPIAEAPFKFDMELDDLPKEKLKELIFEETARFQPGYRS
Experimental: as §1

[1] = target: T3, Calmodulin Kinase (calmodulin-dependent protein kinase 2) (Rattus norvegicus, UniProt P11275); experiment: Kinase selectivity assay Calmodulin Kinase; format: biochemical
T3 construct: purchased New England Biolabs 6060; host or cells: insect cells
Experimental: as §1

HCT-116 colon carcinoma = experiment: Inhibition of cell proliferation, 14C-thymidine incorporation, HCT-116; format: cell-based; conditions: Homo sapiens
Experimental: The ability of a test compound to inhibit the proliferation of cell growth was determined by measuring incorporation of ^14C-labelled thymidine into newly synthesized DNA within the cells. This method was used on cell lines derived from carcinomas originating from several tissues such as HeLa cervical adenocarcinoma (American Type Culture Collection (ATCC), Virginia, Cat. #CCL-2), HCT-116 colon carcinoma (CCL-247), MDA-MB-231 (Xenogen Corp.), PC-3 prostate adenocarcinoma (ATCC CRL-1435) and A375 malignant melanoma (ATCC CRL-1619).
Using this method, the effect of a compound on cell growth of cells with many different phenotypes can be determined. Cells were trypsinized and counted and 3000–8000 cells were added to each well of a 96-well CytoStar tissue culture treated scintillating microplate (Amersham #RPNQ0160) in complete medium in a volume of 100 μl. Cells were incubated for 24 hours in complete medium at 37° C. in an atmosphere containing 5% CO2. 1 μL of test compound in 100% DMSO was then added to the wells of the plate. DMSO only was added to control wells. Cells were incubated for 24 more hours in complete medium at 37° C. in an atmosphere containing 5% CO2. […] The degree of methyl ^14C-thymidine incorporation was quantified on a Packard Top Count.

Insulin Receptor Kinase = target: T4, Insulin Receptor Kinase (Homo sapiens, UniProt P06213); experiment: Kinase selectivity assay Insulin Receptor Kinase; format: biochemical
T4 construct: consists of residues 941–1313 of the cytoplasmic domain of the beta-subunit of the human insulin receptor; purchased BIOMOL SE-195
T4 sequence (P06213 980-1352): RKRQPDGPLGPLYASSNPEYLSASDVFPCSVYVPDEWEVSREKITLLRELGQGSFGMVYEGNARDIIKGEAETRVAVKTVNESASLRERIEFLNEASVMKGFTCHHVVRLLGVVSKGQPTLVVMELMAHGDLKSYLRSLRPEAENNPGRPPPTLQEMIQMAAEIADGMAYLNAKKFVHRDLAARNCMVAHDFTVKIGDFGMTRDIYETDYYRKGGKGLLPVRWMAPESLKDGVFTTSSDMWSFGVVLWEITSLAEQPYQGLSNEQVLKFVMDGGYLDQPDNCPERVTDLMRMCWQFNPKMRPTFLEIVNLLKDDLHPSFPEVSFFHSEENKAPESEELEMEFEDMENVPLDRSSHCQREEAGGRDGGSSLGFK
Experimental: as §1

GSK-3 (beta isoform) = GSK-3 (beta isoform) (Oryctolagus cuniculus, UniProt G1T8E2); experiment: Kinase selectivity assay GSK-3; format: biochemical, rabbit
GSK-3 (beta isoform), sequence (G1T8E2 1-432): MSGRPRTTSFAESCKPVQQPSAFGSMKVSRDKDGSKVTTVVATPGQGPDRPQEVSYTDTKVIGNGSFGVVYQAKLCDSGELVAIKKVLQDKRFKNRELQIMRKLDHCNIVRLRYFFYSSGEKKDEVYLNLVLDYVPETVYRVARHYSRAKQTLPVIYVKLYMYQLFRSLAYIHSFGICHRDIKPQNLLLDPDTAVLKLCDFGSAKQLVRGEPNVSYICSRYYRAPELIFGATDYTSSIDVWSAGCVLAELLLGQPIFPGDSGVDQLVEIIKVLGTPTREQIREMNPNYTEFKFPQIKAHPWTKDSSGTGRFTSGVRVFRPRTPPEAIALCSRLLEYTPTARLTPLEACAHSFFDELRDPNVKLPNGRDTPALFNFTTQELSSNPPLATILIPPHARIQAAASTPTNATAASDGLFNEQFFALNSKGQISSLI
Experimental: as §1

| SMILES | IC50 (Protein Kinase A) [µM] | IC50 (MAP Kinase ERK-2) [µM] | IC50 [1] [µM] | IC50 (HCT-116 colon carcinoma) [nM] | IC50 (Insulin Receptor Kinase) [µM] | IC50 (GSK-3 (beta isoform)) [nM] |
| --- | --- | --- | --- | --- | --- | --- |
| OCCCNc1cc(-c2ncnc(Nc3cccc(Cl)c3)n2)ccn1 [Compound 2, 3-((4-(4-((3-chlorophenyl)amino)-1,3,5-triazin-2-yl)-2-pyridinyl)amino)-1-propanol] | > 100 | > 10 | > 10 | 48 | > 10 | 17 |
| OCCCNc1cncc(-c2ncnc(Nc3cccc(Cl)c3)n2)c1 [Compound 1, 3-((5-(4-((3-chlorophenyl)amino)-1,3,5-triazin-2-yl)-3-pyridinyl)amino)-1-propanol] | > 100 | > 100 | 54.2 | 278 | 18.2 | 5 |
